Test [1] concerns paclitaxel induced peripheral neuropathy. Nature of the test: Reversal of allodynia induced by paclitaxel in mice (s.c. or p.o., von Frey frequency method). The format is in vivo, c57bl/6 mice. Particulars: Mus musculus; for inhibition in vivo at 1 mg/kg: sc, 0.5 h, 1 mg/kg s.c., tested 30 min after dosing, read-out: Screen @ 1 mg/kg sc (% MPE); for inhibition in vivo at 3 mg/kg: po, 1 h, 3 mg/kg p.o., tested 60 min after dosing, read-out: Screen @ 3 mg/kg po (% MPE). Put shortly:
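Neuropathy was induced in mice by paclitaxel (6 mg/kg i.p., days 1, 3, 5, 7) or oxaliplatin (4 mg/kg i.p., days 1-5), with re-testing about 14 days later. Compounds were given s.c. (tested at 30 min) or p.o. (tested at 60 min; paclitaxel only). A 0.4 g von Frey filament was applied ten times per paw, and % non-response was converted to % MPE.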

In test [2] the target is human sphingosine-1-phosphate receptor 2 (S1P2) (Homo sapiens (Human), UniProt O95136). In words: Inositol monophosphate production (IP-one TB kit), S1P2 CHO-K1 cells. The format is cell-based. Particulars: for hS1P2 IP-one pEC50: inositol monophosphate accumulation; for Emax: CHO-K1, efficacy normalized to CYM5520, read-out: hS1P2 IP-one SPAN. Put shortly:
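Stable CHO-K1 cells expressing EA-β-arrestin2 and Prolink-tagged human S1P2, plated overnight, then exposed to compounds in IP-one stimulation buffer for 60 min at 37 °C. IP1 read by TR-FRET after 1 h at RT. Efficacy (SPAN) normalized to CYM5520; potency as pEC50.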

Test [3] deals with human sphingosine-1-phosphate receptor 3 (S1P3) (Homo sapiens (Human), UniProt Q99500). In words: Inhibition of cAMP production (HTRF), S1P3 CHO-K1 cells. The format is cell-based. Particulars: for hS1P3 cAMP pEC50: inhibition of cAMP production; for Emax: CHO-K1, efficacy normalized to fingolimod, read-out: hS1P3 cAMP SPAN. In general terms: cAMP levels reflect the balance of adenylyl cyclase and phosphodiesterase activity.

Test [4] addresses sphingosine-1-phosphate receptor 5 (S1P5) (Homo sapiens (Human), UniProt Q9H228). In words: Inhibition of cAMP production (HTRF), S1P5 CHO-K1 cells. The format is cell-based. Particulars: for hS1P5 cAMP pEC50: inhibition of cAMP production; for Emax: CHO-K1, efficacy normalized to fingolimod, read-out: hS1P5 cAMP SPAN.

Results on 10 molecules are retold here after patent publication US11912693B2, “Compounds for modulating S1P1 activity and methods of using the same” (TREVENA, INC., priority 2017, dated 2024).

Chain of human sphingosine-1-phosphate receptor 3 (S1P3) (Q99500 whole entry): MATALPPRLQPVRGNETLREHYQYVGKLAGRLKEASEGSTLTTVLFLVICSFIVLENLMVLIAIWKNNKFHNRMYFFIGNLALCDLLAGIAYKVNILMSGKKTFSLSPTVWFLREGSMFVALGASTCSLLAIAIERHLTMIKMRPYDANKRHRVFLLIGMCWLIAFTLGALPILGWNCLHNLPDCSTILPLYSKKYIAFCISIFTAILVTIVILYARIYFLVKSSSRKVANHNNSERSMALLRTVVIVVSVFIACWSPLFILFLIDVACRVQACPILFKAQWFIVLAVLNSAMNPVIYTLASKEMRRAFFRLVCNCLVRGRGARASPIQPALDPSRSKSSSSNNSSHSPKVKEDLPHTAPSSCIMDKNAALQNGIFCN
Chain of human sphingosine-1-phosphate receptor 2 (S1P2) (O95136 whole entry): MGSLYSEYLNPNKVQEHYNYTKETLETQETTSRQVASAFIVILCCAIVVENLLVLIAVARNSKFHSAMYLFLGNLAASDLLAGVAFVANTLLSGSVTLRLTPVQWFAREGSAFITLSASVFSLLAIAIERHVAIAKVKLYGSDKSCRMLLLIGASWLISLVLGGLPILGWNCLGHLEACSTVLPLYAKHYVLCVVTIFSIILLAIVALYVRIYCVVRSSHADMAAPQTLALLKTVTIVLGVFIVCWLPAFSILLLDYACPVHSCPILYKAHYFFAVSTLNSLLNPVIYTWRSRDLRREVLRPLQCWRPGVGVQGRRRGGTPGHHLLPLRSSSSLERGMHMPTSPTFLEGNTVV
Chain of sphingosine-1-phosphate receptor 5 (S1P5) (Q9H228 whole entry): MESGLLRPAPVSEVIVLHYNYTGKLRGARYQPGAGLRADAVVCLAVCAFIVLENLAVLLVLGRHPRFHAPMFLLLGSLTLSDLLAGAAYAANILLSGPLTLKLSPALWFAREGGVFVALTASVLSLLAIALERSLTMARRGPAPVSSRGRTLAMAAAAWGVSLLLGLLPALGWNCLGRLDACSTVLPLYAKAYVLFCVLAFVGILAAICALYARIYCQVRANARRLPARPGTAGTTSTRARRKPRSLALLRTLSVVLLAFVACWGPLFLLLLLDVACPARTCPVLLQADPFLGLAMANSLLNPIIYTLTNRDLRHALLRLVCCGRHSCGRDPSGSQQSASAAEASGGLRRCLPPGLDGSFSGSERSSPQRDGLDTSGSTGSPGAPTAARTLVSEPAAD

Take `COc1ccccc1-c1nc(-c2ccc3c(c2)nnn3C(C)C)no1` [Compound 287, 3-(1-isopropyl-1H-benzo[d][1,2,3]triazol-5-yl)-5-(2-methoxyphenyl)-1,2,4-oxadiazole]: the inhibition in vivo at 1 mg/kg in test [1] is less than 50%. In addition, the “hS1P2 IP-one pEC50” value in test [2] is listed as less than 5.0. In test [3], the “hS1P3 cAMP pEC50” value is listed as less than 5.0. In addition, the “hS1P5 cAMP pEC50” value in test [4] was less than 5.0.
With `CC(C)n1nnc2cc(-c3nc(-c4cccc5c4OCCC5)no3)ccc21` [Compound 304, 3-chroman-8-yl-5-(1-isopropylbenzotriazol-5-yl)-1,2,4-oxadiazole], the inhibition in vivo at 1 mg/kg in test [1] is greater than 50%. The “hS1P2 IP-one pEC50” value in test [2] is on record as less than 5.0. Further, the “hS1P3 cAMP pEC50” value in test [3] was greater than 5.0. The “hS1P5 cAMP pEC50” value in test [4] is reported as less than 5.0.
As to `COc1ccc(-c2noc(-c3ccc4c(c3)nnn4CC(C)(C)O)n2)c(C)c1` [Compound 26, 1-{5-[3-(4-methoxy-2-methylphenyl)-1,2,4-oxadiazol-5-yl]-1H-1,2,3-benzotriazol-1-yl}-2-methylpropan-2-ol], in test [1], the inhibition in vivo at 3 mg/kg was less than 50% and the inhibition in vivo at 1 mg/kg was less than 50%. The “hS1P2 IP-one pEC50” value in test [2] was less than 5.0. For the same molecule, the “hS1P3 cAMP pEC50” value in test [3] is less than 5.0. Besides, in test [4], the “hS1P5 cAMP pEC50” value is listed as less than 5.0.
As to `CCC1(CC)CC(=O)c2cc(-c3nc(-c4cccnc4)no3)ccc2O1` [Compound 103, 2,2-diethyl-6-[3-(pyridin-3-yl)-1,2,4-oxadiazol-5-yl]-3,4-dihydro-2H-1-benzopyran-4-one], in test [1], the inhibition in vivo at 3 mg/kg was greater than 50% and the inhibition in vivo at 1 mg/kg is greater than 50%. Besides, in test [2], the Emax is less than 50% and the “hS1P2 IP-one pEC50” value is listed as less than 5.0. Moreover, in test [3], the Emax was less than 50% and the “hS1P3 cAMP pEC50” value was less than 5.0. Moreover, in test [4], the Emax is less than 50% and the “hS1P5 cAMP pEC50” value was less than 5.0.
As to `Cc1ccccc1-c1nc(-c2ccc3c(c2)nnn3C(C)C)no1` [Compound 99, 3-(1-isopropyl-1H-benzo[d][1,2,3]triazol-5-yl)-5-(o-tolyl)-1,2,4-oxadiazole], in test [1], the inhibition in vivo at 3 mg/kg was greater than 50% and the inhibition in vivo at 1 mg/kg was greater than 50%. In test [2], the “hS1P2 IP-one pEC50” value is on record as less than 5.0. For the same molecule, the “hS1P3 cAMP pEC50” value in test [3] is reported as less than 5.0. Besides, the “hS1P5 cAMP pEC50” value in test [4] was less than 5.0.
Regarding `CC(C)n1nnc2cc(-c3nc(-c4ccncc4C(F)(F)F)no3)ccc21` [Compound 455, 1-(propan-2-yl)-5-{3-[3-(trifluoromethyl)pyridin-4-yl]-1,2,4-oxadiazol-5-yl}-1H-1,2,3-benzotriazole], the inhibition in vivo at 3 mg/kg in test [1] is greater than 50%. In test [2], the Emax is less than 50% and the “hS1P2 IP-one pEC50” value is on record as less than 5.0. Also, in test [3], the Emax was less than 50% and the “hS1P3 cAMP pEC50” value is on record as less than 5.0.
As for `Cc1ccccc1-c1noc(-c2ccc3c(c2)nnn3C(C)C)n1` [Compound 293, 5-[3-(2-methylphenyl)-1,2,4-oxadiazol-5-yl]-1-(propan-2-yl)-1H-1,2,3-benzotriazole], the inhibition in vivo at 1 mg/kg in test [1] was greater than 50%. Also, in test [2], the Emax was less than 50% and the “hS1P2 IP-one pEC50” value is less than 5.0. Further, in test [3], the Emax is less than 50% and the “hS1P3 cAMP pEC50” value is less than 5.0. In addition, in test [4], the Emax is greater than 50% and the “hS1P5 cAMP pEC50” value is on record as less than 5.0.
As to `CCC1(CC)CC(=O)c2cc(-c3nc(-c4cn[nH]c4)no3)ccc2O1` [Compound 469, 6-(3-(1H-pyrazol-4-yl)-1,2,4-oxadiazol-5-yl)-2,2-diethylchroman-4-one], the inhibition in vivo at 3 mg/kg in test [1] is greater than 50%.
Regarding `CCC1(CC)CC(=O)c2cc(-c3nc(-c4cccnc4OC)no3)ccc2O1` [Compound 147, 2,2-diethyl-6-(3-(2-methoxypyridin-3-yl)-1,2,4-oxadiazol-5-yl)chroman-4-one], the inhibition in vivo at 1 mg/kg in test [1] is greater than 50%. Further, in test [2], the Emax is less than 50% and the “hS1P2 IP-one pEC50” value was less than 5.0. In test [3], the Emax was less than 50% and the “hS1P3 cAMP pEC50” value was less than 5.0. For the same molecule, in test [4], the Emax is less than 50% and the “hS1P5 cAMP pEC50” value is recorded as greater than 5.0.
As for `CCC1(CC)CC(=O)c2cc(-c3nc(-c4ccncc4OC)no3)ccc2O1` [Compound 212, 2,2-diethyl-6-(3-(3-methoxypyridin-4-yl)-1,2,4-oxadiazol-5-yl)chroman-4-one], the inhibition in vivo at 1 mg/kg in test [1] was greater than 50%. In addition, in test [2], the Emax is less than 50% and the “hS1P2 IP-one pEC50” value is reported as less than 5.0. In addition, in test [3], the Emax is less than 50% and the “hS1P3 cAMP pEC50” value is given as less than 5.0. Besides, in test [4], the Emax was less than 50% and the “hS1P5 cAMP pEC50” value is reported as less than 5.0.
